For experiment [1], the system named is human neuronal calcium channel α2 and β1 subunits. In words: Two-electrode voltage clamp of oöcytes injected with α2 and β1 transcripts. The conditions noted are these: n = 11. (In two-electrode clamp one electrode senses voltage and the other passes current.)
Experiment [2] deals with human neuronal calcium channel α1D and α2 subunits (Homo sapiens, UniProt Q01668). In words: Two-electrode voltage clamp of oöcytes injected with α1D and α2 transcripts. To be noted: holding potential of -90 mV.
human neuronal calcium channel α1D and α2 subunits, sequence (Q01668 10-2161 limits assumed): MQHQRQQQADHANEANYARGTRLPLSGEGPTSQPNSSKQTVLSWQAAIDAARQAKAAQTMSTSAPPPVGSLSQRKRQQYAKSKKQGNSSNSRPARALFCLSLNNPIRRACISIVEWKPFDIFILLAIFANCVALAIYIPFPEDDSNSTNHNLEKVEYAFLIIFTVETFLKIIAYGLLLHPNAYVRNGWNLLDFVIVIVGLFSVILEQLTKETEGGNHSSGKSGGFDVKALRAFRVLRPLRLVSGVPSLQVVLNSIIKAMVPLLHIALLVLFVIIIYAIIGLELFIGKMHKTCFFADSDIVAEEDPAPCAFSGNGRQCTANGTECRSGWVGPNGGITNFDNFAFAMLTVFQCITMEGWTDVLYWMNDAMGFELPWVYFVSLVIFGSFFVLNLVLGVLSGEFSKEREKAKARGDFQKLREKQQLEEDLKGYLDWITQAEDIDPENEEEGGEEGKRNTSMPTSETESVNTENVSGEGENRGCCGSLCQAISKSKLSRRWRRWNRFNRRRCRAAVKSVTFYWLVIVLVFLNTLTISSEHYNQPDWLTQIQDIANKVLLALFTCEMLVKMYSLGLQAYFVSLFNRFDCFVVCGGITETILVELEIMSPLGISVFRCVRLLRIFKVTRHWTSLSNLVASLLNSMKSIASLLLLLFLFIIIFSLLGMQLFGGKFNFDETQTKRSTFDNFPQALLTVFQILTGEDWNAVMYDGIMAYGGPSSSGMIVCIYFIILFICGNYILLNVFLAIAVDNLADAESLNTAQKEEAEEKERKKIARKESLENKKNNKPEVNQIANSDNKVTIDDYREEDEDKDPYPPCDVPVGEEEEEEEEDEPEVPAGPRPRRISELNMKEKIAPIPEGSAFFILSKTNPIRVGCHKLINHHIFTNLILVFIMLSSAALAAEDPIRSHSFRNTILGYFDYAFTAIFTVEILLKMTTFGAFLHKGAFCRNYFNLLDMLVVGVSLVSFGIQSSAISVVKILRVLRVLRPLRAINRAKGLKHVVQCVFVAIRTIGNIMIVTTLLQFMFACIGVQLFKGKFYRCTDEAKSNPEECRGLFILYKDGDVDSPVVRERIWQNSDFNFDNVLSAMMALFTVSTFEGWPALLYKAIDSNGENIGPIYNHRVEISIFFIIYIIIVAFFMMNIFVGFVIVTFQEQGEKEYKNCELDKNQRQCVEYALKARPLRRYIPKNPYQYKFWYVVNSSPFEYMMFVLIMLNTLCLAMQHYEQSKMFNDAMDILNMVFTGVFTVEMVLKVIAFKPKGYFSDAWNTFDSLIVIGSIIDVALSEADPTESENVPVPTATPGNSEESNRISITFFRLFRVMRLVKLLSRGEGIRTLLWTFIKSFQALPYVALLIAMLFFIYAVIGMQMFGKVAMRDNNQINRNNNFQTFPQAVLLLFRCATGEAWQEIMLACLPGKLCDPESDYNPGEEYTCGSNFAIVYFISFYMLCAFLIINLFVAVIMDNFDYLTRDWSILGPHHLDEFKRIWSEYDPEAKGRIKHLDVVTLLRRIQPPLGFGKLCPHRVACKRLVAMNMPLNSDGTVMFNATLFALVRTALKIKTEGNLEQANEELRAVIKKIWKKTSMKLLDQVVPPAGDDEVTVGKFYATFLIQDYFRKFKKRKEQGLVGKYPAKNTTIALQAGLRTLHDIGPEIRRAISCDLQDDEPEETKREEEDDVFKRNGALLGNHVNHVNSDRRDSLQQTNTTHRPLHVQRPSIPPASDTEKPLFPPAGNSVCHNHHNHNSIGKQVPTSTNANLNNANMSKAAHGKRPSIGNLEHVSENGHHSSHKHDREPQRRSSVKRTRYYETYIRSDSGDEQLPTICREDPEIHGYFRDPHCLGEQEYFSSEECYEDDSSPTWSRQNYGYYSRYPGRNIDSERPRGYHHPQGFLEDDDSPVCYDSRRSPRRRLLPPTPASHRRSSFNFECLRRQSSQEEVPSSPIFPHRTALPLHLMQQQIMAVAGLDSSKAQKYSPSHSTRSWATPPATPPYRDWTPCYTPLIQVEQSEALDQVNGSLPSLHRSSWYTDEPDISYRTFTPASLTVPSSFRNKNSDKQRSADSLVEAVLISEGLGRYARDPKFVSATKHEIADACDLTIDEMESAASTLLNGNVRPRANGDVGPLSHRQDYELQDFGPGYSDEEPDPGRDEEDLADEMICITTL
Experiment [3] concerns the target T1, human α1H channels expressed in Xenopus oöcytes (Homo sapiens, UniProt O95180).
T1 construct: Construction of a full-length α1H-1-encoding DNA clone; expressed in transfected cells; host or cells: Xenopus laevis oöcytes injected with in vitro transcripts
In kind it is cell-based. To be noted: for IC50: Ba^2+ currents (15 mM Ba^2+).

In experiment [4] the target is T2, human α1H containing calcium channels expressed in HEK293 cells (Homo sapiens, UniProt O95180).
T2 construct: expressed in transfected cells; host or cells: HEK293 (transient, calcium phosphate; pCMVCD4 co-transfected as marker)
T2 sequence (O95180 whole entry): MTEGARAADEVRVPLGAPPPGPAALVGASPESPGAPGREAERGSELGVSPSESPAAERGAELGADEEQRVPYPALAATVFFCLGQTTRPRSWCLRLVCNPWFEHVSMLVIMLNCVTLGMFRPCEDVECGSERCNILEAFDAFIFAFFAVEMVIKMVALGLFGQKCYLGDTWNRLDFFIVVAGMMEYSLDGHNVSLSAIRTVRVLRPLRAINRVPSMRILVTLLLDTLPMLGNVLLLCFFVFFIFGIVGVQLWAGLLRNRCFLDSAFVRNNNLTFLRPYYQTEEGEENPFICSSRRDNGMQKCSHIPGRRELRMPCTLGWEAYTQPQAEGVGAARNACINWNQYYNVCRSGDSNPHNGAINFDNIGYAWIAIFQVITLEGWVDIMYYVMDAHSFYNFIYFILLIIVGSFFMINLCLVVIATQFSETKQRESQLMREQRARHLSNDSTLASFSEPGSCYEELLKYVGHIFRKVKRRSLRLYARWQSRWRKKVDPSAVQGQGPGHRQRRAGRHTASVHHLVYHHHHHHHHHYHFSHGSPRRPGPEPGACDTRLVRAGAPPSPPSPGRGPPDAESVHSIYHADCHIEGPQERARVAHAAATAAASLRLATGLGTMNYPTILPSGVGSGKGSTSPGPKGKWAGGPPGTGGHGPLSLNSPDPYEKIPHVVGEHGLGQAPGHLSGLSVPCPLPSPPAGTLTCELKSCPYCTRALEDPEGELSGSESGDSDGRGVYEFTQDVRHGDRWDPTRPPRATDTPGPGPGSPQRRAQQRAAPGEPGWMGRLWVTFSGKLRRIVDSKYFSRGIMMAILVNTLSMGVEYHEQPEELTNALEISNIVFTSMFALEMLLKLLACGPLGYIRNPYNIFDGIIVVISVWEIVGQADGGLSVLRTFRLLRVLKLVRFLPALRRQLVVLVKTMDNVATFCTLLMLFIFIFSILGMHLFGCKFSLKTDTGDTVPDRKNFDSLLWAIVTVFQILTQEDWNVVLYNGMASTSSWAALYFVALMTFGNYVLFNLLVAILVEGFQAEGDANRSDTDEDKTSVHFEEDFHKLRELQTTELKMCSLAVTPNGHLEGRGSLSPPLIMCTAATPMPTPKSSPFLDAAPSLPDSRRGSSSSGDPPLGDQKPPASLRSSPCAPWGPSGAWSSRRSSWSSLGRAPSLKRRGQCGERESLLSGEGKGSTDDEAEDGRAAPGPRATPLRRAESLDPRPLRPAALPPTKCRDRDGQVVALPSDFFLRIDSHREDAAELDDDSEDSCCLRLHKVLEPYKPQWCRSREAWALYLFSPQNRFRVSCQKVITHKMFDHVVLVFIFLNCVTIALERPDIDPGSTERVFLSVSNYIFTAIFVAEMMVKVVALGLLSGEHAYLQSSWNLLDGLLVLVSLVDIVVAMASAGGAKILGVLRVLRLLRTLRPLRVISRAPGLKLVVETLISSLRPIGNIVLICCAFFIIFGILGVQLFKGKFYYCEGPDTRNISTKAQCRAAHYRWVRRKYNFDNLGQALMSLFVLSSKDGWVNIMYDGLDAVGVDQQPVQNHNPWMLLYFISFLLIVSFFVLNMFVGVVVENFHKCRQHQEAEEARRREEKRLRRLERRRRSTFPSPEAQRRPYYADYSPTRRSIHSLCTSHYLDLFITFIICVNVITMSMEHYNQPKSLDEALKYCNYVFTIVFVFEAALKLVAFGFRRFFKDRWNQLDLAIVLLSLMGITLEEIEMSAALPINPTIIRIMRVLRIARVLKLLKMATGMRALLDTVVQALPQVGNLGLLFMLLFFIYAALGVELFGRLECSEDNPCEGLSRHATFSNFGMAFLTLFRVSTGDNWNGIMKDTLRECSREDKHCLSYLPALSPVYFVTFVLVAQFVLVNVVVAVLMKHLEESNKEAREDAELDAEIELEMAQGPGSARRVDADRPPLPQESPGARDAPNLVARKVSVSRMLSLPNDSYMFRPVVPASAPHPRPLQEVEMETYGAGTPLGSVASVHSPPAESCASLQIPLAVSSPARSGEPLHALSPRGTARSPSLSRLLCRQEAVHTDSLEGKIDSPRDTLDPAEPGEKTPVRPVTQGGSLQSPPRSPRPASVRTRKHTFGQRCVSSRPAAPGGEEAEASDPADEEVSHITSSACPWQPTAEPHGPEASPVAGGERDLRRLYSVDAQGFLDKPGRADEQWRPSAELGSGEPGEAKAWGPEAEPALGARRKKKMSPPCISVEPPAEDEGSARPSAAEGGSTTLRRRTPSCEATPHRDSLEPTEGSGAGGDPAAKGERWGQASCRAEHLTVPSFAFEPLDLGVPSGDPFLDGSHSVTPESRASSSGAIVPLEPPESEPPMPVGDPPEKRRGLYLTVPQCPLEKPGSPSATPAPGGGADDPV
In words: Whole-cell patch clamp of HEK293 cells transiently expressing the α1H subunit. It is filed as cell-based. (The patch-clamp technique gives a direct electrical read-out from membranes.)

For experiment [5], the system named is T-type current in neuroblastoma cells. The conditions noted are these: cited from earlier work.
Experiment [6] relates to T-type current in hippocampal neurons. To be noted: 300 µM; cited from earlier work.
The mark [7] stands for this setting: Xenopus oöcytes, concentration-inhibition curve of Ba^2+ currents.

Where “and” joins values, the source holds several entries; their conditions need not be identical. Identical values can stand only once. Like-named read-outs stand apart in the source and are kept apart here.

T1 sequence (O95180 whole entry): as above

On to `COC(=O)C1=C(C)NC(C)=C([N+](=O)[O-])C1c1ccccc1C(F)(F)F` (centres unmarked) [Bay K 8644], for which the “sensitivity of inward barium currents (in words)” value in experiment [1] was “insensitive”. Also, the “response of barium currents (in words)” value in experiment [2] is on record as “little or no response”.

Turning to `[Ni+2]` [Ni^2+], in experiment [3] (Xenopus oöcytes), the reversibility of antagonism entry is given as “largely reversible” and the IC50 came to 6.3 µM. This molecule yielded a nH in experiment [3] (setting [7]) of 0.84. For the same molecule, in experiment [4], the IC50 stood at 6.6 µM, the “effect on α1H-mediated currents (in words)” value is “inhibited” and the “α1H-mediated currents more sensitive to Ni^2+ than to Cd^2+” value amounted to 16 fold.

For `COCCOC(=O)C1=C(C)NC(C)=C(C(=O)OC(C)C)C1c1cccc([N+](=O)[O-])c1` (centres unmarked) [Nimodipine, nimodipine], in experiment [4] (HEK293, 10 µM, HEK293 cells, 15 mM Ba^2+, mean ± SD(n), read-out: % Inhibition of Control Response), the inhibition at 10 µM came out at 43.7 ± 4.1%.

With `CCC1(C)CC(=O)NC1=O` (centres unmarked) [Ethosuximide, ethosuximide], the inhibition at 300 µM in experiment [4] (HEK293, 300 µM, HEK293 cells, 15 mM Ba^2+, mean ± SD(n), read-out: % Inhibition of Control Response) is 7.2 ± 1.8%. Also, the “effect on α1H-mediated currents (in words)” value in experiment [4] (no concentration stated) was “no effect”.

Turning to `COC(=O)C1=C(C)NC(C)=C([N+](=O)[O-])[C@H]1c1ccccc1C(F)(F)F` [(-)BayK-8644], in experiment [4] (HEK293, read-out: % Inhibition of Control Response, 1 µM, HEK293 cells, 15 mM Ba^2+, mean ± SD(n)), the inhibition at 1 µM is 0.4 ± 0.8%. The “effect on α1H channels (in words)” value in experiment [4] (concentration of 1 µM) is recorded as “little effect”. The “effect on α1H-containing channels (in words)” value in experiment [4] (concentration of 10 µM) is “marked inhibition”.

With `N=C(N)NC(=O)c1nc(Cl)c(N)nc1N` [Amiloride, amiloride], in experiment [5], the 50% inhibitory concentration (IC50) was about 50 µM. Moreover, the “reduction of the T-type current” value in experiment [6] is on record as 40%. For the same molecule, in experiment [3], the nH is listed as 0.62. Further, in experiment [4], the “effect on α1H-mediated currents (in words)” value is “inhibited” and the “sensitivity of α1H-1-containing calcium channels lower when expressed in HEK293 cells than when expressed in Xenopus oöcytes” value is “about 10 fold”. In experiment [4] (HEK293 cells, charge carrier 15 mM Ba^2+, sigmoidal curve fitting), the IC50 amounted to 167 µM.

As for `[Cd+2]` [Cd^2+], the half-inhibitory concentration (IC50) in experiment [3] (Xenopus oöcytes) was 8.3 µM and 10.3 µM. Also, in experiment [4], the IC50 was 104 µM and the “sensitivity of α1H-1-containing calcium channels lower when expressed in HEK293 cells than when expressed in Xenopus oöcytes” value is “about 10 fold”.

As to `COCC(=O)O[C@]1(CCN(C)CCCc2nc3ccccc3[nH]2)CCc2cc(F)ccc2[C@@H]1C(C)C` [Mibefradil, (IS,2S)-2-[2-[[3-(1H-benzimidazol-2-yl)propyl]methyl-amino]ethyl]-6-fluoro-1-isopropyl-1,2,3,4-tetrahydronaphthalen-2-yl methoxyacetate], the nH in experiment [3] (setting [7]) amounted to 0.71. The inhibition at 1 µM in experiment [4] (1 µM, HEK293 cells, 15 mM Ba^2+, mean ± SD(n), read-out: % Inhibition of Control Response) stood at 51 ± 10%. Besides, in experiment [4] (no concentration stated), the “effect on α1H-mediated currents (in words)” value was “inhibited”.

By IC50 is commonly meant the concentration needed to halve the response being measured. Broadly, the inhibition is the relative decrease from the control value, in per cent.

The record behind these values is patent publication EP1042468B1.
